Results from ChEMBL document CHEMBL1201862, “PubChem BioAssay data set” (2004).
Calls of active or inactive are those of the source.

Experiments:
HEK293 [1] = assay: HEK293T cell viability loss, resazurin readout – resazurin fluorescence, cytotoxicity control for NF-kB activator project, SAR follow-up (AID 493251); type: functional, cell-based; details: Homo sapiens
HEK293 [2] = assay: SAR Analysis of small molecule inhibitors of T-cell specific antigen receptor-induced NF-kB activation in a HEK-293T cell line using a luminescence assay - Set 2. [Related pubchem assays (depositor defined):AID435003, AID435012, AID489026]; type: functional, cell-based; details: Homo sapiens
Jurkat = assay: SAR Analysis of small molecule inhibitors of T-cell specific antigen receptor-induced NF-kB activation in a Jurkat cell line using a luminescence assay - Set 2. [Related pubchem assays (depositor defined):AID435003, AID435012, AID465]; type: functional, cell-based; details: Homo sapiens
Hexokinase HKDC1 = target: T1, Hexokinase HKDC1 (Homo sapiens, UniProt Q2TB90); assay: SAR analysis of small molecule inhibitors of hexokinase domain containing I (HKDC1). [Related pubchem assays (depositor defined):AID493160, AID493190]; type: functional
T1 sequence (Q2TB90 whole entry): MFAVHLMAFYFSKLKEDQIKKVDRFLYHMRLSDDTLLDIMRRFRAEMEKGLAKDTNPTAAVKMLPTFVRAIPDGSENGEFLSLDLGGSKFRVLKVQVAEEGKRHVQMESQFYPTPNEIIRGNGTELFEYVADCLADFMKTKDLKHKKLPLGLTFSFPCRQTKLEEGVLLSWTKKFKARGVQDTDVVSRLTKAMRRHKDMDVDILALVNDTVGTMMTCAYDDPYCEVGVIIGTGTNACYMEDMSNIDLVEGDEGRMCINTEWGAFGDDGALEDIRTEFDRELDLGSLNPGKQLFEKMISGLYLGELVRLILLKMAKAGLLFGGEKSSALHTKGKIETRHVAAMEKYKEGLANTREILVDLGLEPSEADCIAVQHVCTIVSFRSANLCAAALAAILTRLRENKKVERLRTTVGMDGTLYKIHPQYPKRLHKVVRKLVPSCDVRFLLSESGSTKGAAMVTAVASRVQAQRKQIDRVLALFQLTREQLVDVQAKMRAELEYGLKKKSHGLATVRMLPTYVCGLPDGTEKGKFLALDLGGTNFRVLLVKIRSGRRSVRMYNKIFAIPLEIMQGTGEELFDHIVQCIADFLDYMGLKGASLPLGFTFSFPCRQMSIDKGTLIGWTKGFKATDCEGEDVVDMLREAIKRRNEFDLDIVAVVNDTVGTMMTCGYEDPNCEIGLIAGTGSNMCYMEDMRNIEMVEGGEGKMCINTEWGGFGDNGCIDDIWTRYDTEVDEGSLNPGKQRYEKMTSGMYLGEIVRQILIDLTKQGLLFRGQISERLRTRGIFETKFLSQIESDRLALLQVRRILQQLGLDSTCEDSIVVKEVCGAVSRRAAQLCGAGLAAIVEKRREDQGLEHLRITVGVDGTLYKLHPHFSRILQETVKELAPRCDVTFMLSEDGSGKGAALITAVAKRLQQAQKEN

Hexokinase-1 = Hexokinase-1 (Homo sapiens, UniProt P19367); assay: SAR analysis of small molecule inhibitors of hexokinase domain containing I (HKDC1) in the hexokinase 1 selectivity assay. [Related pubchem assays (depositor defined):AID493160, AID493190]; type: functional
[3] = target: T2, Short transient receptor potential channel 4 (Mus musculus, UniProt Q9QUQ5); assay: SAR Analysis for the identification of selective inhibits of the transient receptor potential cation channel C4 (TRPC4): Automated Electrophysiology_2. [Related pubchem assays (depositor defined):AID2256]; type: functional
T2 sequence (Q9QUQ5 whole entry): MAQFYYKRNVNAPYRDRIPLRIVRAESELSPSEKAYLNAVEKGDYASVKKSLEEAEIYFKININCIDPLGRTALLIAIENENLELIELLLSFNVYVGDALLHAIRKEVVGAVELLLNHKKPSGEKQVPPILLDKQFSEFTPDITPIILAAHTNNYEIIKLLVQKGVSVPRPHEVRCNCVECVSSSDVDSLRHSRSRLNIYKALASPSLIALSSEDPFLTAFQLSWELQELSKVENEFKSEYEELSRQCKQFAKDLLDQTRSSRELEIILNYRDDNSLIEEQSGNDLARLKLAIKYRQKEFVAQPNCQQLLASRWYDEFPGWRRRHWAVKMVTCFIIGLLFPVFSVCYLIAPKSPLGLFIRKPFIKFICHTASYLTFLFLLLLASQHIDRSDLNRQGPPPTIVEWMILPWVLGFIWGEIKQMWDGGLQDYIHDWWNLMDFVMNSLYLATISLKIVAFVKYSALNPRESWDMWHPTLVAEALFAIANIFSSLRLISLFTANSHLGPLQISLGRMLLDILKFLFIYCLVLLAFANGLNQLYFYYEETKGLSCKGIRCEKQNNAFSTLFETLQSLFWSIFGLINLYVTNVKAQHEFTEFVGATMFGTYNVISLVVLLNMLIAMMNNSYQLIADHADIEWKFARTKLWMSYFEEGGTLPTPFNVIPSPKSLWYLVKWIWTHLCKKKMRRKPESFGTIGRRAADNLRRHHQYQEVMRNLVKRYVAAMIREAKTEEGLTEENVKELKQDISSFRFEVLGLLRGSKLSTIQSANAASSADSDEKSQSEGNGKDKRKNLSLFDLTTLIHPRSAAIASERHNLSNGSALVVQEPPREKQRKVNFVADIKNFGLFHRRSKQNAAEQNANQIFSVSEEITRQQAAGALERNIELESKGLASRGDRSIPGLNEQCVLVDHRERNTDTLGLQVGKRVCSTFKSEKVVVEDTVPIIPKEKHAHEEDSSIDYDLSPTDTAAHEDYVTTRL

[4] = target: Short transient receptor potential channel 6 (Mus musculus, UniProt Q61143); assay: mouse TRPC6 channel blockers, concentration series – HEK293 cells, membrane potential dye, IC50, selectivity assay for selective TRPC4 inhibitor project, dose response (AID 492987); type: functional, cell-based
[5] = target: T2, Short transient receptor potential channel 4; assay: potency of mouse TRPC4 calcium flux blockers – cell-based, HEK293 TRPC4/mu-opioid, DAMGO stimulus, Fluo-4, dose response (AID 492994); type: functional
[6] = target: Voltage-gated inwardly rectifying potassium channel KCNH2 (Homo sapiens, UniProt Q12809); details: Potency;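 also: confirmatory quantitative high-throughput screen measuring inhibition of hERG channel activity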
Voltage-gated inwardly rectifying potassium channel KCNH2, sequence (Q12809 whole entry): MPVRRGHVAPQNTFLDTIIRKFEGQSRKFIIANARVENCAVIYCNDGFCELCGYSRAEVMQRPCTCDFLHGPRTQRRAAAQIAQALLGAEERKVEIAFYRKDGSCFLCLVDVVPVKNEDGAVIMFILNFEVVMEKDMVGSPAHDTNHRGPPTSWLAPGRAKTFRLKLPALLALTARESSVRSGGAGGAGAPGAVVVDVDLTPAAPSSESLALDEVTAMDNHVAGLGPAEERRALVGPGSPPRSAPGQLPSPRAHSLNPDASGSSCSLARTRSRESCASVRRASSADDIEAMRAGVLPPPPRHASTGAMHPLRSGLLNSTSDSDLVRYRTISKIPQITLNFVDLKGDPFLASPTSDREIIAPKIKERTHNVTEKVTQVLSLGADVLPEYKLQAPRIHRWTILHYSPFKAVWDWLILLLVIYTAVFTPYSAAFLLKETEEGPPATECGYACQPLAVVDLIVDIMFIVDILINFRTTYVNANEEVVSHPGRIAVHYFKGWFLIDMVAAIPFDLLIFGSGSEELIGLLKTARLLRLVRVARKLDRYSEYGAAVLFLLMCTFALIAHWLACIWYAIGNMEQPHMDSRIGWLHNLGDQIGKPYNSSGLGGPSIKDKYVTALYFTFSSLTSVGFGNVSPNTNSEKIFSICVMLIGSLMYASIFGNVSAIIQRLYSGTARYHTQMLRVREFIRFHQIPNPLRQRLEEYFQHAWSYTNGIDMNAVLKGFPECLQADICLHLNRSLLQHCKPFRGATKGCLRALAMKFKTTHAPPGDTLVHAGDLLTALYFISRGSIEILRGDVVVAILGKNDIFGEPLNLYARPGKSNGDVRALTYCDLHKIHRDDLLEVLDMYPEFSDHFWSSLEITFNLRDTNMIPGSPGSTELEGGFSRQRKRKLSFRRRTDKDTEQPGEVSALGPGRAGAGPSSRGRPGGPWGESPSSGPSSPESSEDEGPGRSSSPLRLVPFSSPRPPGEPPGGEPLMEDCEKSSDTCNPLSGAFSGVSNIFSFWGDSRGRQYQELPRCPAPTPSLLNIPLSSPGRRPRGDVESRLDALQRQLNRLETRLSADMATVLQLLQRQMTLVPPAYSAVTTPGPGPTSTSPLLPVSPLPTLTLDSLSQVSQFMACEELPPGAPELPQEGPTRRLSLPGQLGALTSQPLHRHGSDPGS

Hexokinase-1, sequence (P19367 whole entry, the tested form may be a part): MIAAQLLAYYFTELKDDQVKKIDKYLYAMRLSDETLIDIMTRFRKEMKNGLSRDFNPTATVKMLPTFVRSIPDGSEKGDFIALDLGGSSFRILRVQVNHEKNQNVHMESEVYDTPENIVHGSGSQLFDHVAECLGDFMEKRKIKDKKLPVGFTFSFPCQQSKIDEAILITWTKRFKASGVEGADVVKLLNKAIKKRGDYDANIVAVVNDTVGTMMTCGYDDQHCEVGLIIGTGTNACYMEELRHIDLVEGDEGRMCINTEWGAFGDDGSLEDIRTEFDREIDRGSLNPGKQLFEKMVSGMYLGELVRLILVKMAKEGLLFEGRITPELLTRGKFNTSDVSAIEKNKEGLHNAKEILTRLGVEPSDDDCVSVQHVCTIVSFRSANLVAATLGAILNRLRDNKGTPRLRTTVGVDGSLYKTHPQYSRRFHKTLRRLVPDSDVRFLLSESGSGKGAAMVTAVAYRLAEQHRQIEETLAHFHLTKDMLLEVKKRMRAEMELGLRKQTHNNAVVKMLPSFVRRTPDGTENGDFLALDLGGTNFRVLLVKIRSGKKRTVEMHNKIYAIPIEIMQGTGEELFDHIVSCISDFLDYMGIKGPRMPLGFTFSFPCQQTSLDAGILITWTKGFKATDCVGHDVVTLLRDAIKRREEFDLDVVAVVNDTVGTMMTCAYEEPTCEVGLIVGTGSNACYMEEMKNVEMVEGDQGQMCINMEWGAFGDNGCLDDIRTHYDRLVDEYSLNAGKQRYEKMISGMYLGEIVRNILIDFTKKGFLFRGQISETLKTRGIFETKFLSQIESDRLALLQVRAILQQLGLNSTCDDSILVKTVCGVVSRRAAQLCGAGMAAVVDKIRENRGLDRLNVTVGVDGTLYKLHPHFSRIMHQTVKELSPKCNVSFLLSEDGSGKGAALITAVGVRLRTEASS
Short transient receptor potential channel 6, sequence (Q61143 whole entry): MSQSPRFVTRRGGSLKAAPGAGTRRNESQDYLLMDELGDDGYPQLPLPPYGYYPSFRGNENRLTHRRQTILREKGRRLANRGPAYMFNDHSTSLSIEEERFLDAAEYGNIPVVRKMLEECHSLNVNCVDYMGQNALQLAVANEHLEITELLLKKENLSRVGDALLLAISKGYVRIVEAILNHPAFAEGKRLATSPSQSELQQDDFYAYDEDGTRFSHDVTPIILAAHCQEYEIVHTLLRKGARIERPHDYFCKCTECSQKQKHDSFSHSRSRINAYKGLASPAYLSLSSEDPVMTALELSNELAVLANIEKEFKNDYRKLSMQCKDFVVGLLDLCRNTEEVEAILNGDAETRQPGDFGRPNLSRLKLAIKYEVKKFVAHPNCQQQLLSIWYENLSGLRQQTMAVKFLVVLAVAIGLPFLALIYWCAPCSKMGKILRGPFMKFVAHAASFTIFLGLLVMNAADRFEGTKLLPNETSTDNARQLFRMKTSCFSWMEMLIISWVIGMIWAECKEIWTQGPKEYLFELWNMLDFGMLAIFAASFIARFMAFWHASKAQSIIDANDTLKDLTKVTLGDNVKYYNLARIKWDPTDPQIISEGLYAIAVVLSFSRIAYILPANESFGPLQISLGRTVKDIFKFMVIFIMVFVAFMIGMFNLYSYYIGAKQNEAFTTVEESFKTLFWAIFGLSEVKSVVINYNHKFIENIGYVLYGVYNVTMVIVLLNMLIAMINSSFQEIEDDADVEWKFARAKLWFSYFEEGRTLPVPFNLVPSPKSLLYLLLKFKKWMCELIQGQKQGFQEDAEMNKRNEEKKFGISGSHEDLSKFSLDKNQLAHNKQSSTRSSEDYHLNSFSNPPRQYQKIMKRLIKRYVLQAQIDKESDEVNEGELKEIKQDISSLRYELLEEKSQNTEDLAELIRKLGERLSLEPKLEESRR

COc1ccc(C(=O)Nc2ccc(NC(=O)c3cc4ccccc4o3)cc2)cc1Br
IC50 (HEK293 [1]): > 80 µM (inactive) | IC50 (HEK293 [2]): > 80 µM (inactive) | IC50 (Jurkat): > 79 µM (inactive)

O=c1c2ccccc2nc(/C=C/c2ccccc2Cl)n1Cc1ccccc1
IC50 (Hexokinase HKDC1): > 80 µM (inactive) | IC50 (Hexokinase-1): > 80 µM (inactive)

Cc1cc(N2CCCC2)nc2c(C)cccc12
IC50 [3]: 9.96 µM (active) | IC50 [4]: 9.8 µM (active) | IC50 [5]: 10.7 µM (active)

COc1cc([C@@H]2c3cc4c(cc3[C@H](O)C3COC(=O)[C@@H]32)OCO4)cc(OC)c1OC (some centres undefined)
AC50 [6]: 0.501 µM (inconclusive)
